The source of these data is paper PMC10967270, “Intrapulmonary and Systemic Pharmacokinetics of Colistin Following Nebulization of Low-Dose Colistimethate Sodium in Patients with Ventilator-Associated Pneumonia Caused by Carbapenem-Resistant Acinetobacter baumannii” (Antibiotics, 2024).

Positions of bridges follow the written chain, without caps; N, C: chain ends. Non-standard residues stand in square brackets, D forms with d. Residues, ends and D or L forms follow the SMILES beside them. *: point of attachment. X1 = CC[C@H](C)CCCCC(=O)*; Dab = NCC[C@H](N)C(=O)O

The subject of one data set is A. baumannii. The following applies: murine thigh infection model; cited from earlier work.
Data set [1] in a line: Colistin concentration in epithelial lining fluid (BALF, urea-corrected) after CMS nebulization. The data set is classed as in vivo, human. The method, then: Patients were treated with CMS (Xellia Pharmaceuticals ApS, Copenhagen, Denmark) at a total of 3.75 MIU (equivalent to 300 mg of CMS or 112.5 mg of CBA) administered four times a day at 6 h intervals. CMS was dissolved in 5 mL of normal saline and administered over 30 min through a jet nebulizer (Sileo 54, Macjin Medical, Seoul, Republic of Korea) connected to the ventilator circuit. Bronchoalveolar lavage fluid (BALF) was obtained by instilling 20 mL of normal saline into the right middle lobe or left lingular segmental bronchus using a bronchoscope, followed by immediate aspiration and collection into a syringe. Samples were collected immediately before the nebulization treatment and at 1, 3, and 5 h after the start of the treatment. Blood samples were collected before the nebulization treatment and at 1, 2, 3, and 5 h thereafter. Both BALF and blood samples were centrifuged at 3000× g for 10 min within 1 h of collection and the supernatant was isolated. Samples were then stored in a refrigerator at a temperature below −70 °C.
A validated liquid chromatography–tandem mass spectrometry assay was used to determine colistin concentrations in BALF and plasma samples. The HPLC equipment consisted of an Agilent 1200 series modular system and an Atlantis C18 column (Company, Waters, Milford, MA, USA) (2.1 mm × 150 mm, 3.0 μm). Mobile phases A and B were water and acetonitrile, respectively. Both phases contained 0.1% formic acid. A gradient elution program was started at 10% B, increased to 35% for 1 min, maintained at this composition for 3.8 min, and returned to the initial composition for 5 min to re-equilibrate the column. Mass spectrometry (MS) was performed using a triple-quadruple mass spectrometer (SCIEX QTRAP5500, Applied Biosystems, Foster City, CA, USA) with an electrospray ionization (ESI) interface. The ESI source was set to positive ionization mode. The parent to product transition (m/z) was 578.483→101.071 for colistin A, 585.453→101.071 for colistin B, and 602.527→101.000 for polymyxin B. Data acquisition and processing were performed using the Analyst software (version 1.7.1; Applied Biosystems, Foster City, CA, USA). Stock solutions of colistin and IS were prepared in deionized water at concentrations of 10 mg/mL, and both were stored at −20 °C. Working solutions of colistin were prepared in deionized water (dilutions of 2, 5, 10, 50, 100, 500, and 1000 μg/mL). Calibration standards were prepared by spiking 247.5 μL of drug-free plasma with 2.5 μL of colistin working solution. Low (colistin A; 11.16 ng/mL, colistin B; 48.84 ng/mL), moderate (colistin A; 186 ng/mL, colistin B; 814 ng/mL), and high (colistin A; 1488 ng/mL, colistin B; 6512 ng/mL) concentrations of QC samples were prepared. Sample pretreatment involved a solid phase extraction. A 250 μL aliquot of plasma was pipetted into a 1.5 mL Eppendorf tube, to which 10 μL of IS (10 μg/mL, polymyxin B) and 740 μL of deionized water were added. This mixture was loaded into a cartridge that had been preconditioned twice with 1 mL of methanol and 1 mL of deionized water. After the plasma mixture was loaded, the cartridge was washed with 1 mL of deionized water. One milliliter of methanol including 0.1% formic acid was used for extraction. Extraction liquid was evaporated by vacuum concentrator (Speedvac, Thermo Fisher Scientific Inc., Waltham, MA, USA) at 45 °C for 2.5 h. Samples were reconstituted in 100 μL deionized water containing 0.1% formic acid. Subsequently, samples were vortexed for 5 min and centrifuged at 13,200 rpm for 10 min, and […] of supernatant was injected into the LC-MS system.
Colistin concentrations, encompassing both colistin A and colistin B, were determined and collectively referred to as “colistin”. The concentration of colistin in the epithelial lining fluid (ELF), termed CELF, was calculated using the formula CELF = CBAL (Ureaplasma/UreaBAL), where CBAL is the colistin concentration measured in BALF. […]

For `CC[C@H](C)CCCCC(=O)N[C@@H](CCN)C(=O)N[C@H](C(=O)N[C@@H](CCN)C(=O)N[C@H]1CCNC(=O)[C@H]([C@@H](C)O)NC(=O)[C@H](CCN)NC(=O)[C@H](CCN)NC(=O)[C@H](CC(C)C)NC(=O)[C@@H](CC(C)C)NC(=O)[C@H](CCN)NC1=O)[C@@H](C)O` [colistin] (X1-[Dab]T[Dab][Dab][Dab][dL]L[Dab][Dab]T; lactam 4-C), the “fAUC/MIC target values for a 2 log10 kill” value with A. baumannii is on record as 17.5–43.0 mg/L·h. Moreover, in data set [1] (human, epithelial lining fluid, inhaled or intranasal, 1 h after start (time by position in Figure 1a), CMS 0.9375 MIU nebulized over 30 min, LC-MS/MS, 20 patients, read-out: Median colistin concentration in ELF), the level at 1 h amounted to 11800 ng/mL. The level at 3 h in data set [1] (human, epithelial lining fluid, inhaled or intranasal, 3 h after start (time by position in Figure 1a), CMS 0.9375 MIU nebulized over 30 min, LC-MS/MS, 20 patients, read-out: Median colistin concentration in ELF) was found to be 15400 ng/mL. Besides, in data set [1] (human, epithelial lining fluid, inhaled or intranasal, 5 h after start (time by position in Figure 1a), CMS 0.9375 MIU nebulized over 30 min, LC-MS/MS, 20 patients, read-out: Median colistin concentration in ELF), the level at 5 h was determined as 8160 ng/mL. Besides, the Kp at 1 h in data set [1] (human, epithelial lining fluid, inhaled or intranasal, at 1 h, median concentrations, nebulized CMS 0.9375 MIU, read-out: Colistin concentration in ELF relative to plasma) was roughly 614. For the same molecule, the Kp at 3 h in data set [1] (human, epithelial lining fluid, inhaled or intranasal, at 3 h, median concentrations, nebulized CMS 0.9375 MIU, read-out: Colistin concentration in ELF relative to plasma) was roughly 408. The Kp at 5 h in data set [1] (human, epithelial lining fluid, inhaled or intranasal, at 5 h, median concentrations, nebulized CMS 0.9375 MIU, read-out: Colistin concentration in ELF relative to plasma) is roughly 250. The “Observed peak colistin concentration in ELF, median (IQR)” value in data set [1] (nebulized CMS 0.9375 MIU over 30 min, monitored over 5 h, 20 patients) is 21,950 (10,440–28,389) μg/L.
